Results reported in patent US12285440B2, “APOE4 impairs myelination via altered cholesterol biosynthesis and transport in oligodendroglia” (Massachusetts Institute of Technology, priority 2021, dated 2025).
Entries after “also recorded” stand apart in the source; their conditions may differ.

Columns and labels:
[1] = tested on: APOE4 iPSC-derived oligodendroglia; assay: APOE oligodendroglia drug treatment, bodipy-cholesterol and bodipy lipid droplet staining; type: cell-based, human; settings: for total bodipy-cholesterol staining: APOE4 oligodendroglia treated two weeks (Atorvastatin 1 μM, Simvastatin 1 μM, Cyclodextrin 10 mM), compared with APOE3/3 oligodendroglia
Description: It was reasoned that inhibiting cholesterol biosynthesis and/or facilitating cholesterol transport in APOE4 oligodendrocytes may reduce intracellular accumulation and improve myelination.
Cells were plated onto a Millipore eight-chamber glass slide, at a density of 250,000 cells per well. Cells were then cultured in Neurobasal media, supplemented with PDGFR-α, NT3 and β-FGF. […] Cells were fixed with 4% PFA, and stained for Bodipy-cholesterol, WGA-555 and DAPI.

APOE4KI mice [2] = assay: Cyclodextrin treatment of APOE4KI mice, brain immunohistochemistry (bodipy-cholesterol, Olig2, Mbp); type: in vivo, mouse; settings: 2 g/kg subcutaneous twice a week for eight weeks, vs saline control
Description: It was next assessed whether cyclodextrin could reduce aberrant cholesterol accumulation in oligodendrocytes and promote increased myelination in APOE4KI mice in vivo. APOE4KI mice were treated with subcutaneous injections of cyclodextrin or saline (control) for eight weeks (n=5 control and 4 cyclodextrin treated mice). […] To more directly assess myelination in cyclodextrin treated APOE4 mice, TEM-based ultrastructural analysis was performed.
Animals were anaesthetized via exposure to gaseous isoflurane, and transcardially perfused with ice-cold PBS. The brains were dissected out, one hemisphere frozen in dry ice, and one hemisphere drop-fixed in 4% paraformaldehyde. The post-fixed hemisphere was sliced at a thickness of 40 μm using a Leica vibratome. Slices were blocked with a buffer containing 0.3% Triton-X and 10% normal donkey serum for two hours at room temperature, before being incubated with primary antibody overnight at 4° C. Slices were then washed with PBS and incubated with secondary antibody for two hours at room temperature, washed with PBS again, and mounted. Slides were imaged using a Zeiss LSM 880 microscope, and analyzed using the ImageJ “FIJI” or Imaris softwares. Human brain tissue slices were further incubated with TrueBlack for five minutes prior to mounting, to reduce auto-fluorescence.
(§1) APOE4KI female mice were injected subcutaneously with either 200 μL Cyclodextrin (2 g/kg) or 200 μL saline, twice a week for eight weeks.

APOE4KI mice [3] = assay: Novel object recognition task; type: in vivo, mouse; settings: female APOE4KI mice, control n=12, cyclodextrin n=14
Description: (§2) To investigate whether the increased myelination observed in cyclodextrin treated APOE4KI mice could promote functional improvements, the novel object recognition assay was performed to evaluate learning and memory (FIG. 4G)^57.
as §1
(§3) Mice were placed in an open field arena and allowed to move freely for ten minutes. The total distance moved and time mice spent in the center of the arena was tracked using the EthoVision XT software from Noldus. 24 hours later, mice were then placed into the same arena containing two objects and allowed to freely investigate both for a period of eight minutes. After an interval of four hours, mice were then placed back in the chamber with one novel object and one familiar object. The preference index was calculated by determining how much time an animal spent with its nose interacting with the novel object, divided by the total time an animal spent interacting with either object.

APOE4KI mice [4] = assay: Cyclodextrin treatment of APOE4KI mice, TEM of corpus callosum (g-ratio); settings: n=150 neurons, 2 g/kg subcutaneous twice a week for eight weeks, vs control mice
APOE4KI mice [5] = assay: Open field task; type: in vivo, mouse; settings: cyclodextrin-treated vs control APOE4KI mice
Description: as §2, §1, §3

[6] = tested on: APOE4 oligodendroglia/iNeuron co-cultures; assay: In vitro myelination assay, oligodendroglia/iNeuron co-cultures, MBP and neurofilament staining; type: cell-based, human; settings: APOE4 co-cultures treated 6 weeks
Description: To further investigate the effect of APOE4 on myelination an in vitro model of myelination was developed that employs the genetically controlled isogenic APOE cells derived from CRISPR-edited iPSCs. To achieve this, iPSC-derived oligodendroglia were co-cultured with neurons induced from iPSCs using NGN2 overexpression (iNeurons) in a three-dimensional extracellular matrix that allows each cell type to interact with other cells and self-assemble into tissue-like structures (FIG. 10D). After 2 weeks in these 3D co-cultures, MBP-positive oligodendroglia spread across the culture and engage neurofilament-positive axons (FIG. 10E). After 6 weeks in culture, myelin-associated proteins 04 and Mbp encircled numerous neurofilaments, mimicking biological processes critical to myelination (FIG. 10E). […] Therefore, it was sought to use this in vitro myelination assay to assess the effect of APOE4 on myelin-associated phenotypes in human cells. Consequently, oligodendroglia/iNeuron co-cultures from two different APOE4/4 and APOE3/3 isogenic sets of iPSC-derived cells were established. […]
To determine whether cyclodextrin-induced cholesterol reduction in APOE4 oligodendroglia affected myelination, APOE4 oligodendroglia/iNeuron co-cultures were treated with cyclodextrin for 6 weeks and then assessed myelination phenotypes (FIG. 4C). […]

CYP46A1 = settings: APOE4 oligodendroglia treated two weeks, vs untreated APOE4 controls
[7] = tested on: excitatory neurons generated by the rapid induction of NGN2 expression; assay: MEA recording of NGN2-induced neurons treated with cholesterol; type: cell-based, human
Description: (§4) Cholesterol is essential for proper neuronal physiology, and cholesterol depletion is known to impair neurotransmission. Since we detect extracellular accumulation of cholesterol in APOE4 iMGLs, we wondered what the impact of exogenous cholesterol treatment would be to these neuronal cultures. Due to the extended culture times of spheroids, we opted to conduct these studies with excitatory neurons generated by the rapid induction of NGN2 expression. […] To further dissect the physiological process that renders neurons less excitable upon treatment with exogenous cholesterol, we next assessed iPSC-derived neurons by patch-clamp electrophysiology. […] Potentiation of Kir currents is aligned with our observation in cells recorded on MEA, as strong inwardly-rectifying potassium currents are known to hyperpolarize resting membrane potentials and decrease neuronal excitability.
Dissociated spheroids or NGN2-induced neurons were plated as a 10 μl droplet in Poly-D-Lysine (Sigma-Aldrich) coated wells of a CytoView MEA 48-well plate (Axion BioSystems; M768-tMEA-48B). […] Spontaneous neural activity was recorded for 30 minutes at a sampling rate of 12.5 kHz and an adaptive threshold set at 5.5 times the standard deviation of baseline noise was used for spike detection. […]

[8] = tested on: dissociated spheroid cultures; assay: Patch-clamp electrophysiology of dissociated spheroid neurons with exogenous cholesterol; type: cell-based, human; settings: 1 mM cholesterol in external solution
Description: as §4
Whole-cell patch-clamp recordings of neurons were performed at 6 to 8 weeks after spheroid dissociation and 2D plating, or for iMGLs after 2 to 4 weeks of iMGL differentiation. […] Membrane potentials were typically kept between −50 mV to −70 mV depending on whether neurons or iMGLs were being recorded. In voltage-clamp mode, currents were recorded with voltage steps ranging from −160 mV to +80 mV. […] ATP-evoked currents were recorded by local application of 100 μM (Sigma-Aldrich; #A9187). […]

forebrain spheroids = type: cell-based, human
iMGLs [9] = assay: Calcium imaging of Fluo-4 AM labeled iMGLs with compound uncaging; type: cell-based, human; settings: uncaging at 405 nm; for amplitude of calcium transients upon uncaging: 1 mM Caged NMDA or 1 mM Caged Glutamate
iMGLs [10] = assay: Whole-cell patch-clamp of iMGLs, ATP-evoked currents; type: cell-based, human; settings: local application of 100 μM

Compound: CC(C)c1c(C(=O)Nc2ccccc2)c(-c2ccccc2)c(-c2ccc(F)cc2)n1CC[C@@H](O)C[C@@H](O)CC(=O)O [atorvastatin]
- total bodipy-cholesterol staining [1]: significantly (p=0.0085 and 0.0450) higher than APOE3/3 oligodendroglia

Compound: 2-hydroxypropyl-β-cyclodextrin
- Mbp staining (APOE4KI mice [2]): significantly (p=0.0008) increased Mbp staining; also recorded: overall increase in Mbp
- bodipy-cholesterol staining co-localizing within 1 μm of Mbp staining (APOE4KI mice [2]): significant (p=0.0423) increase; also recorded: increase in cholesterol-myelin colocalization
- bodipy-cholesterol staining accumulated around Olig2-positive nuclei (APOE4KI mice [2]; hippocampus): significantly (p=0.0038) reduced compared to control mice; also recorded: reduction of bodipy-cholesterol staining in cyclodextrin-treated mice
- preference for novel object (APOE4KI mice [3]): significantly (p=0.0466) increased preference for interacting with the novel object
- g-ratio (APOE4KI mice [4]): significantly (p<0.0001) lower g-ratio; also recorded: decrease in g-ratio
- total bodipy-cholesterol staining [1]: reduced bodipy-cholesterol staining that was not significantly different (p>0.9999) from that in APOE3 oligodendroglia
- neutral lipid droplets measured by bodipy staining ([1]; cyclodextrin-treated vs control APOE4 oligodendroglia): significant (p<0.0001) reduction
- number of intracellular droplets of bodipy-cholesterol ([1]; cyclodextrin-treated vs control APOE4 oligodendroglia, normalized to nuclei): significant (p=0.0092) reduction
- total distance moved (APOE4KI mice [5]; p=0.1275): similar
- velocity (APOE4KI mice [5]; p=0.1711): similar
- duration in the center of the cages (APOE4KI mice [5]; p=0.4478): similar
- levels of MBP localization with neurofilament, comparison with APOE3 co-cultures [6]: not significantly (p=0.0794) different from APOE3 co-cultures
- MBP staining localized along neurofilament staining ([6]; untreated APOE4 18.89%, APOE3 62.42%, p=0.0274): 43.44%+/−5.382
- expression of CYP46A1 (CYP46A1): significant (p=0.0011) upregulation

Compound: CC(C)CCC[C@@H](C)[C@H]1CC[C@H]2[C@@H]3CC=C4C[C@@H](O)CC[C@]4(C)[C@H]3CC[C@]12C [cholesterol]
- neuronal activity on MEA [7]: phenocopied our observation of treatment with APOE4 iMGL conditioned media
- resting membrane potential (RMP) [8]: significantly hyperpolarized the resting membrane potential
- I-V curve, inwardly-rectifying potassium (Kir) currents ([8]; vs non-treated neurons): greater inwardly-rectifying potassium (Kir) currents

Compound: NC1=N[C@H](O)[C@H]2[C@H]3O[C@]4(O)O[C@@H]([C@@H](O)[C@@]2(N1)[C@@H]4O)[C@]3(O)CO [tetrodotoxin]
- increase in iMGL calcium transients mediated by stimulated spheroid media (forebrain spheroids): reduced to levels of non-stimulated spheroid media

Compound: N[C@@H](CCC(=O)O)C(=O)O [glutamate]
- amplitude of calcium transients upon uncaging (iMGLs [9]): increase the amplitude of calcium transients

Compound: CN[C@H](CC(=O)O)C(=O)O [NMDA]
- amplitude of calcium transients upon uncaging (iMGLs [9]): increase the amplitude of calcium transients

Compound: Nc1ncnc2c1ncn2[C@@H]1O[C@H](COP(=O)(O)OP(=O)(O)OP(=O)(O)O)[C@@H](O)[C@H]1O [ATP]
- calcium transients upon ATP uncaging (iMGLs [9]; 1 mM Caged ATP): robust increase in calcium transients
- response to extracellular ATP, whole-cell patch-clamp (iMGLs [10]): iMGLs sensed extracellular ATP
